Laboratory results from patent US10005767B2, “Compositions and methods for inhibition of the JAK pathway” (Rigel Pharmaceuticals, Inc., priority 2009, dated 2018).
Read-outs that look alike come from different tables or passages of the source.

Tested on: human primary T-cells, IL-2 stimulated proliferation (JAK-1 and JAK-3 dependent; reported as JAK3 activity)
Test: Human primary T-cell proliferation stimulated by IL-2 (Example 3)
Format: cell-based
Conditions: tested under conditions described in Example 3 (IL-2 stimulated human primary T-cell proliferation), read-out: ability to inhibit JAK3 activity, IC50 range (Table V)
Method in brief: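 Peripheral-blood human T-cells pre-activated via TCR/CD28, IL-2-starved overnight, then cultured 72 h at 37 °C with compound in Yssel's medium containing IL-2 (80 U/mL in cell suspension). Proliferation read as viable-cell ATP by CellTiter-Glo luminescence; reduction versus control taken as JAK pathway inhibition.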

| Compound | IC50 [nM] | IC50 (Homo sapiens, T-cell) [nM] |
| --- | --- | --- |
| Cn1c(=O)oc2cc(Nc3nc(Nc4cccc(S(C)(=O)=O)c4)ncc3F)ccc21 [Compound I-59, N2-((3-methylsulfonyl)phenyl)-N4-(3-methyl-2-oxo-2,3-dihydrobenzo[d]oxazol-6-yl)-5-fluoropyrimidine-2,4-diamine] | < 500 | – |
| Cc1cnc(Nc2ccc(N3C[C@H]4C[C@@H]3CO4)nc2)nc1Nc1ccc2oc(=O)[nH]c2c1 [II-139, 5-methyl-N2-{2-[(1R,4R)-2-oxa-5-azabicyclo[2.2.1]heptan-5-yl]pyridin-5-yl}-N4-(2-oxo-2,3-dihydro-1,3-benzoxazol-5-yl)-2,4-pyrimidinediamine] | – | < 500 |
| Cc1cnc(Nc2ccc(C(C)NC3CC3)cc2)nc1Nc1ccc2oc(=O)[nH]c2c1 (stereo not shown) [Compound I-202, 5-(2-(4-(1-(cyclopropylamino)ethyl)phenylamino)-5-methylpyrimidin-4-ylamino)benzo[d]oxazol-2(3H)-one] | – | < 500 |
| Cc1cnc(Nc2ccc(NS(C)(=O)=O)nc2)nc1Nc1ccc2oc(=O)[nH]c2c1 [II-78, N-(5-(5-methyl-4-(2-oxo-2,3-dihydrobenzo[d]oxazol-5-ylamino)pyrimidin-2-ylamino)pyridin-2-yl)methanesulfonamide] | – | < 500 |
| Cc1cnc(Nc2cnc(C3CC4CCC(C3)N4C(=O)C(F)(F)F)c(C)c2)nc1Nc1ccc2oc(=O)[nH]c2c1 (stereo not shown) [II-69, 5-(5-methyl-2-(5-methyl-6-(8-(2,2,2-trifluoroacetyl)-8-aza-bicyclo[3.2.1]octan-3-yl)pyridin-3-ylamino)pyrimidin-4-ylamino)benzo[d]oxazol-2(3H)-one] | – | < 500 |
| Cc1cnc(Nc2ccc3c(C)n[nH]c3c2)nc1Nc1ccc2oc(=O)[nH]c2c1 [IV-48, 5-methyl-N2-(3-methylindazol-6-yl)-N4-(2-oxo-2,3-dihydro-1,3-benzoxazol-5-yl)-2,4-pyrimidinediamine] | – | < 500 |
| Cc1cc(Nc2ncc(C)c(Nc3ccc4oc(=O)[nH]c4c3)n2)ccc1N1CCN2CCCCC2C1 (stereo not shown) [Compound I-122, N4-(benzo[d]oxazol-2(3H)-on-5-yl)-N2-((4-(dihydro-1H-pyrido[1,2-a]pyrazin-2(6H,7H,8H,9H,9aH)-yl)-3-methyl)phenyl)-5-methylpyrimidine-2,4-diamine] | < 500 | – |
| CCCn1c(=O)oc2ccc(Nc3nc(Nc4ccc(N5CCN(C)CC5)nc4)ncc3C)cc21 [II-4, N4-(3-n-propylbenzo[d]oxazol-2(3H)-on-5-yl)-N2-(6-(4-methylpiperazin-1-yl)pyridin-3-yl)-5-methylpyrimidine-2,4-diamine] | – | < 500 |
| Cc1cc(C)cc(Nc2ncc(C)c(Nc3cc(F)c4oc(=O)[nH]c4c3)n2)c1 [Compound I-488, 5-(2-(3,5-dimethylphenylamino)-5-methylpyrimidin-4-ylamino)-7-fluorobenzo[d]oxazol-2(3H)-one] | – | < 500 |
| Cc1cnc(Nc2ccc(-c3ccncc3)c(C(F)(F)F)c2)nc1Nc1ccc2oc(=O)[nH]c2c1 [Compound I-330, 5-methyl-N4-(2-oxo-2,3-dihydro-1,3-benzoxazol-5-yl)-N2-[4-(pyridin-4-yl)-3-trifluoromethyl]phenyl-2,4-pyrimidinediamine] | 5000 to 10000 | – |
| COc1cc(Nc2ncc(C)c(Nc3ccc4oc(=O)[nH]c4c3)n2)ccc1C(=O)N(C)C [Compound I-267, 2-methoxy-N,N-dimethyl-4-(5-methyl-4-(2-oxo-2,3-dihydrobenzo[d]oxazol-5-ylamino)pyrimidin-2-ylamino)benzamide] | – | < 500 |
| Cc1cnc(Nc2cccc(-c3ccncc3)c2)nc1Nc1ccc2oc(=O)[nH]c2c1 [Compound I-289, 5-methyl-N4-(2-oxo-2,3-dihydro-1,3-benzoxazol-5-yl)-N2-[3-(pyridin-4-yl)]phenyl-2,4-pyrimidinediamine] | < 500 | – |
| COc1c(F)ccc(Nc2ncc(C)c(Nc3cc(C)c4oc(=O)[nH]c4c3)n2)c1F [Compound I-507, 5-(2-(2,4-difluoro-3-methoxyphenylamino)-5-methylpyrimidin-4-ylamino)-7-methylbenzo[d]oxazol-2(3H)-one] | – | < 500 |
| Cn1c(=O)oc2ccc(Nc3nc(Nc4ccc(F)c(NS(C)(=O)=O)c4)ncc3F)cc21 [Compound I-91, N2-((4-fluoro-3-methylsulfonylamino)phenyl)-N4-(3-methyl-2-oxo-2,3-dihydrobenzo[d]oxazol-5-yl)-5-fluoropyrimidine-2,4-diamine] | 500 to 5000 | – |
| Cc1cnc(Nc2ccc(OC(F)(F)F)c(F)c2)nc1Nc1ccc2oc(=O)[nH]c2c1 [Compound I-376, N2-(3-fluoro-4-trifluoromethoxy)phenyl-5-methyl-N4-(2-oxo-2,3-dihydro-1,3-benzoxazol-5-yl)-2,4-pyrimidinediamine] | < 500 | – |
| COc1ccc(Nc2ncc(C)c(Nc3ccc4oc(=O)[nH]c4c3)n2)cc1OCc1cccnc1 [Compound I-299, N2-{4-methoxy-3-[(pyridin-3-yl)methoxy]}phenyl-5-methyl-N4-(2-oxo-2,3-dihydro-1,3-benzoxazol-5-yl)-2,4-pyrimidinediamine] | < 500 | – |

| Compound | IC50 [nM] | IC50 (Homo sapiens, T-cell) [nM] |
| --- | --- | --- |
| Cc1cnc(Nc2cc(F)cc(N3CCN(C)CC3)c2)nc1Nc1ccc2oc(=O)[nH]c2c1 [Compound I-241, 5-(2-(3-fluoro-5-(4-methylpiperazin-1-yl)phenylamino)-5-methylpyrimidin-4-ylamino)benzo[d]oxazol-2(3H)-one] | – | < 500 |
| Cc1cnc(Nc2ccc(NS(C)(=O)=O)nc2)nc1Nc1ccc2oc(=O)n(C)c2c1 [II-79, N-(5-(5-methyl-4-(3-methyl-2-oxo-2,3-dihydrobenzo[d]oxazol-5-ylamino)pyrimidin-2-ylamino)pyridin-2-yl)methanesulfonamide] | – | < 500 |
| Cc1cnc(Nc2ccc(S(N)(=O)=O)cc2)nc1Nc1ccc2c(c1)oc(=O)n2C [Compound I-64, N2-((4-aminosulfonyl)phenyl)-N4-(3-methyl-2-oxo-2,3-dihydrobenzo[d]oxazol-6-yl)-5-methylpyrimidine-2,4-diamine] | > 10000 | – |
| Cc1cnc(Nc2ccc(N3CCN4CCC[C@@H]4C3)nc2)nc1Nc1ccc2oc(=O)[nH]c2c1 [II-132, N2-[2-(R-1,4-diazabicylco[4.3.0]nonan-4-yl)pyridin-5-yl]-5-methyl-N4-(2-oxo-2,3-dihydro-1,3-benzoxazol-5-yl)-2,4-pyrimidinediamine] | < 500 | – |
| Cc1cnc(Nc2ccc(C(=O)N3CCCC3)cc2)nc1Nc1ccc2oc(=O)[nH]c2c1 [Compound I-247, 5-(5-methyl-2-(4-(pyrrolidine-1-carbonyl)phenylamino)pyrimidin-4-ylamino)benzo[d]oxazol-2(3H)-one] | – | < 500 |
| Cc1cnc(Nc2ccc(N3CCC[C@H](N(C)C(=O)OC(C)(C)C)C3)nc2)nc1Nc1ccc2oc(=O)[nH]c2c1 [II-87, (S)-tert-butyl methyl(1-(5-(5-methyl-4-(2-oxo-2,3-dihydrobenzo[d]oxazol-5-ylamino)pyrimidin-2-ylamino)pyridin-2-yl)piperidin-3-yl)carbamate] | – | < 500 |
| Cc1cnc(Nc2ccc(N3CCC(NC(=O)C(C)(C)C)C3)nc2)nc1Nc1ccc2oc(=O)[nH]c2c1 (stereo not shown) [II-102, N-(1-(5-(5-methyl-4-(2-oxo-2,3-dihydrobenzo[c]oxazol-5-ylamino)pyrimidin-2-ylamino)pyridin-2-yl)pyrrolidin-3-yl)pivalamide] | < 500 | – |
| CN(c1ccc(Nc2ncc(F)c(Nc3ccc4oc(=O)[nH]c4c3)n2)cc1)S(C)(=O)=O [Compound I-96, N2-((4-methylsulfonyl-N-methylamino)phenyl)-N4-(2-oxo-2,3-dihydrobenzo[d]oxazol-5-yl)-5-fluoropyrimidine-2,4-diamine] | < 500 | – |
| Cc1cnc(Nc2cncc(Br)c2)nc1Nc1ccc2oc(=O)[nH]c2c1 [II-77, 5-(2-(5-bromopyridin-3-ylamino)-5-methylpyrimidin-4-ylamino)benzo[d]oxazol-2(3H)-one] | – | 500 to 5000 |
| COc1cc(Nc2ncc(C)c(Nc3ccc4oc(=O)n(COP(=O)(OC(C)(C)C)OC(C)(C)C)c4c3)n2)cc(C(F)(F)F)c1 [Compound I-356, N4-{3-[bis(1,1-dimethylethoxy)]phosphinyloxymethyl-2-oxo-2,3-dihydro-1,3-benzoxazol-5-yl}-N2-(3-methoxy-5-trifluoromethyl)phenyl-5-methyl-2,4-pyrimidinediamine] | 5000 to 10000 | – |
| CNC(C)c1cc(Nc2ncc(C)c(Nc3ccc4oc(=O)[nH]c4c3)n2)cc(OC)c1 (stereo not shown) [Compound I-236, 5-(2-(3-methoxy-5-(1-(methylamino)ethyl)phenylamino)-5-methylpyrimidin-4-ylamino)benzo[d]oxazol-2(3H)-one] | – | < 500 |
| Cc1cnc(Nc2cccc(C(C)N3CCCC3)c2)nc1Nc1ccc2oc(=O)[nH]c2c1 (stereo not shown) [Compound I-212, 5-(5-methyl-2-(3-(1-(pyrrolidin-1-yl)ethyl)phenylamino)pyrimidin-4-ylamino)benzo[d]oxazol-2(3H)-one] | – | < 500 |
| Cc1cnc(Nc2cnc(N3C[C@@H]4C[C@H]3CN4C)c(C(F)(F)F)c2)nc1Nc1ccc2oc(=O)[nH]c2c1 [II-109, N4-(benzo[d]oxazolin-2(3H)-one-5-yl)-5-methyl-N2-[2-((1S,4S)-5-methyl-2,5-diazabicyclo[2.2.1]heptan-2-yl)-3-trifluoromethylpyridine-5-yl]-2,4-pyrimidinediamine] | – | < 500 |
| Cc1cnc(Nc2ccc(C(F)(F)F)c(Cl)c2)nc1Nc1ccc2oc(=O)[nH]c2c1 [Compound I-167, 5-[2-(3-Chloro-4-trifluoromethyl-phenylamino)-5-methyl-pyrimidin-4-ylamino]-3H-benzooxazol-2-one] | – | < 500 |
| Cn1c(=O)n(C)c2cc(Nc3nc(Nc4cccc(S(N)(=O)=O)c4)ncc3F)ccc21 [Compound I-39, N4-(1,3-dimethylbenzimidazolin-2-on-5-yl)-N2-((3-aminosulfonyl)phenyl)-5-fluoropyrimidine-2,4-diamine] | < 500 | – |
